Where “and” joins values, the source holds several entries; their conditions need not be identical. Equal values may be shown once.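 Grown in 96-well plates, cells were treated for 48 hours with each compound at five concentrations. Insufficient inhibition: endpoint recorded as highest concentration tested. At the GI50, growth is halved. TGI: concentration producing complete growth inhibition.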

Test systems include PC-3 prostate; SW-620 colon; NCI/ADR-RES ovarian; RXF 393 renal; BT-549 breast; CCRF-CEM leukemia; NCI-H522 lung; T-47D breast; SNB-78 CNS; DMS 114 small cell lung.
What all share (assay): NCI-60 cell line screen, 48 h

As for `O=C(Nc1cccc(Cl)c1)c1cc(Cl)ccc1O`, the GI50 in the test with PC-3 prostate was 2.6 µM; with SW-620 colon it was 1.36 µM; with NCI/ADR-RES ovarian, 1.64 µM; in the test with RXF 393 renal it was 0.849 µM; in the test with BT-549 breast it was 0.362 µM; with CCRF-CEM leukemia, 2.82 µM. In addition, the GI50 in the test on NCI-H522 lung was 0.32 µM; in the test with T-47D breast it was 1.24 µM. Besides, the TGI was over 25.2 µM with PC-3 prostate; 9.85 µM in the test with SW-620 colon; over 29.4 µM in the test on NCI/ADR-RES ovarian; 4.27 µM with RXF 393 renal; 1.29 µM with BT-549 breast; 22 µM with CCRF-CEM leukemia. Further, the TGI in the test on NCI-H522 lung came to 1.78 µM; in the test on T-47D breast, 7.38 µM.
As for `Oc1cccc(-c2nc(N3CCOCC3)c3oc4ncccc4c3n2)c1`, the GI50 in the test on PC-3 prostate was 0.0505 µM and 0.0462 µM; with SW-620 colon, 0.344 µM and 0.353 µM; in the test on NCI/ADR-RES ovarian, 0.147 µM and 0.225 µM; in the test on RXF 393 renal, 0.0796 µM and 0.116 µM; in the test with BT-549 breast it was 0.0515 µM and 0.036 µM; in the test on CCRF-CEM leukemia, 0.517 µM and 0.461 µM. The GI50 in the test with NCI-H522 lung was 0.0654 µM and 0.0819 µM; in the test with T-47D breast, 0.212 µM and 0.192 µM. The TGI is over 100 µM in the test on PC-3 prostate; over 100 µM in the test with SW-620 colon; 0.361 µM and 0.55 µM in the test with RXF 393 renal; 1.18 µM and 1.15 µM with BT-549 breast; over 100 µM with CCRF-CEM leukemia; 0.666 µM and 4.67 µM in the test on NCI-H522 lung. Moreover, the TGI in the test on T-47D breast is 1.34 µM and 0.814 µM.
Consider `CCOc1ccccc1NC(=O)CCC(=O)NN`, for which the TGI in the test with SNB-78 CNS, in the test on SW-620 colon, with RXF 393 renal, with CCRF-CEM leukemia and in the test on NCI-H522 lung was over 100 µM throughout.
For `CC(C)(C)OC(=O)n1c(Cl)c(C(=O)N=C=S)c2ccccc21`, the GI50 in the test on PC-3 prostate is 24.2 µM; in the test on SW-620 colon it was 35.4 µM; with NCI/ADR-RES ovarian, 18.5 µM; in the test on RXF 393 renal, 53.4 µM; in the test with BT-549 breast it was 30.9 µM; with CCRF-CEM leukemia, 35.5 µM. The GI50 is 18.1 µM with NCI-H522 lung and 47.8 µM in the test with T-47D breast. Moreover, the TGI in the test on PC-3 prostate was over 100 µM; with SW-620 colon it was over 100 µM; with NCI/ADR-RES ovarian, 62.6 µM; with RXF 393 renal it was over 100 µM; with BT-549 breast, 91.7 µM; in the test with CCRF-CEM leukemia, over 100 µM. Further, the TGI was 37.6 µM with NCI-H522 lung and over 100 µM in the test with T-47D breast.
`N#Cc1c(-c2ccc(Cl)cc2)csc1NC(=O)Nc1cccc(C(F)(F)F)c1`: the GI50 is 2.43 µM in the test with PC-3 prostate; 3.33 µM in the test on SW-620 colon; 2.1 µM with NCI/ADR-RES ovarian; 2.33 µM in the test on RXF 393 renal; 2.62 µM in the test with BT-549 breast; 3.17 µM in the test with CCRF-CEM leukemia. In addition, the GI50 in the test on NCI-H522 lung was 1.65 µM; in the test on T-47D breast, 1.76 µM. Further, the TGI turned out to be 11.5 µM in the test on PC-3 prostate; 13.9 µM in the test on SW-620 colon; 4.7 µM in the test on NCI/ADR-RES ovarian; 5.96 µM with RXF 393 renal; 9.23 µM with BT-549 breast; 12 µM in the test on CCRF-CEM leukemia. For the same molecule, the figures for the TGI with NCI-H522 lung and in the test on T-47D breast were 5.99 µM and 7.79 µM, respectively.
Turning to `CCCCOP1(=O)C=CC(Cl)=C(C)C1` (stereo not drawn), the TGI turned out to be 71.7 µM with DMS 114 small cell lung, 42.7 µM in the test on SW-620 colon and 35 µM in the test on CCRF-CEM leukemia.
Consider `COc1ccc(CNC(=O)c2ccc(-c3cc(-c4nnc(C)o4)ccc3C)cc2)cc1`, for which the GI50 was 19.2 µM in the test with PC-3 prostate; over 25 µM in the test on SW-620 colon; 16.1 µM in the test with NCI/ADR-RES ovarian; over 25 µM in the test on RXF 393 renal; 13.3 µM in the test with BT-549 breast; over 25 µM with CCRF-CEM leukemia. In addition, the GI50 in the test with NCI-H522 lung is over 20.2 µM; in the test with T-47D breast, 7.01 µM. For the same molecule, the TGI in the test on PC-3 prostate, in the test on SW-620 colon, with NCI/ADR-RES ovarian, in the test on RXF 393 renal, with BT-549 breast and in the test on CCRF-CEM leukemia was over 25 µM in each case. Further, the TGI with NCI-H522 lung and with T-47D breast was over 25 µM in each case.
In the case of `CC(=O)[O-].O=[N+]([O-])c1ccc([O-])c(C=NCCN=Cc2cc([N+](=O)[O-])ccc2[O-])c1.[Mn+3]`, the GI50 in the test on DMS 114 small cell lung was 98 µM; with SNB-78 CNS, over 100 µM; in the test with RXF 393 renal, over 100 µM; with CCRF-CEM leukemia it was 33.4 µM; in the test on NCI-H522 lung, 31.4 µM. Moreover, the TGI is over 100 µM in the test with DMS 114 small cell lung; over 100 µM with SNB-78 CNS; over 100 µM with RXF 393 renal; over 100 µM in the test on CCRF-CEM leukemia; 93.3 µM in the test with NCI-H522 lung.
Consider `C#CCn1cc(C=C2C(=O)NC(=S)NC2=O)c2cc(Cl)ccc21`, for which the GI50 in the test with PC-3 prostate is 2.57 µM; in the test on SW-620 colon it was 1.79 µM; in the test on NCI/ADR-RES ovarian, 3.09 µM; with RXF 393 renal it was 1.84 µM; in the test with BT-549 breast, 1.91 µM; in the test with CCRF-CEM leukemia, 2.32 µM. The GI50 is 2.12 µM in the test on NCI-H522 lung and 3.04 µM with T-47D breast. For the same molecule, the TGI in the test with PC-3 prostate is 6.89 µM; in the test with SW-620 colon, 3.45 µM; in the test on NCI/ADR-RES ovarian, 12.8 µM; with RXF 393 renal, 3.65 µM; with BT-549 breast, 3.89 µM; with CCRF-CEM leukemia, 6.45 µM. In addition, the TGI in the test on NCI-H522 lung is 5.45 µM; with T-47D breast, 14.1 µM.
In the case of `COc1cc(-c2nn3c(=O)n(-c4ccc(Cl)cc4)c(=O)nc3s2)cc(OC)c1OC`, the GI50 in the test on SNB-78 CNS was 8.88 µM; in the test on SW-620 colon, over 50 µM; in the test with RXF 393 renal it was 14.7 µM; with CCRF-CEM leukemia, over 5 µM; in the test on NCI-H522 lung, over 50 µM. The TGI with SNB-78 CNS is 50 µM and > 100 µM; in the test with SW-620 colon, over 100 µM; in the test with RXF 393 renal it was 40.7 µM and 21.6 µM; in the test on CCRF-CEM leukemia, over 100 µM; in the test with NCI-H522 lung, over 100 µM.

These data come from PubChem BioAssay (NCI).
